Series [1] deals with primary mouse macrophages (PMM). Put plainly: in vitro. The method, then: (§1) Toxicity in human fetal lung fibroblast (MRC-5) cell line and primary mouse macrophages (PMM) was assessed using a previously reported assay in 96-well microtiter plates. Tamoxifen and miltefosine were included as reference drugs (Table 10).
(§2) For MRC5SV2 or PMM cells, the assays were performed in 96-well microtiter plates, each well containing 10 µL of compound dilution and 190 µL of cell inoculum (3 × 10^4 cells/mL) as reported. Cell growth was compared to untreated controls (100% growth) and assay-media controls (0% growth). After three-day incubation, cell viability was assessed fluorometrically by adding resazurin [50 µL/well of a stock solution in phosphate buffer (50 µg/mL)], incubating for 4 h and measuring fluorescence (ex 550 nm, em 590 nm). The results are expressed as percentage reduction in cell growth as compared to untreated control wells. […] Tamoxifen was included as the reference drug.

Series [2] has as its system BL3 cells. Briefly: Proliferation test on non-infected BL3 cells. In kind it is cell-based, bovine. As to conditions: […] and 0.5 μM. The procedure: (§3) Theileria annulata culture: The TBL3 cell line was derived by in vitro infection of the spontaneous bovine B-lymphosarcoma cell line BL3 with the Hissar stock of T. annulata. B cell characteristics of the lines have been described. The cells are maintained at 37 °C under 5% CO2, in RPMI medium supplemented with 10% FCS, 25 mM Hepes, 4 mM L-glutamine, 100 μg/mL of streptomycin, 100 IU/mL of penicillin and […] 2-mercapthoethanol.
(§4) Cells were cultured in 12-well plates at an initial density of 200,000 cells per well in duplicate for each condition. […] The cells were cultured in 12-well plates at an initial density of 200,000 cells per well and drug was added every 24 h. To be able to compare the results, a drug-free control was also performed. Cell counting was done at 24, 72 and 96 h using the trypan blue method.

A further series deals with O. ochengi microfilariae. Briefly: O. ochengi microfilariae motility assay. In kind it is cell-based, Onchocerca ochengi. The settings on record: 10 μM. The procedure:
(§5) O. ochengi microfilariae assays: were collected from the hides of infected cattle and washed prior to adding 10–15 microfilariae to 96-well culture plates containing confluent monkey kidney epithelial cells in 100 μL of media. Microfilariae were run in duplicate and plates were maintained at 37 °C in a 5% CO2 incubator. Microfilariae viability was visually scored using percent reduction of motility using the same scoring criteria used for adult males. Scores were recorded every 24 h after addition of drugs for 5 days using an inverted microscope.

Series [3] concerns adult ex vivo S. mansoni worms. Put plainly: Adult ex vivo Schistosoma worm killing assay. In kind it is cell-based. The method, then: Adult ex vivo Schistosoma assay: Mice (Swiss-Webster) were infected with S. mansoni by percutaneous exposure for 1 h to cercariae (NMRI strain) obtained from infected Biomphalaria glabrata snails. This study was approved by the Institutional Animal Care and Use Committee of Rush University Medical Center (17-053; Department of Health and Human Services animal welfare assurance number A-3120-01). Adult worms were isolated from infected mice as described and cultured in RPMI medium +10% fetal calf serum (FCS), 10 mM glutamine, 100 IU/mL penicillin and 100 µg/mL streptomycin for 24 h before compound addition. Compounds were dissolved in DMSO and added at the indicated concentrations. The culture media was replaced every day and fresh compounds added. Control worms were treated with DMSO alone. Worms were cultured for 5 days. […] Assays were done in triplicate with about 10 worms in each well. This study was approved by the Institutional Animal Care and Use Committee of Rush University Medical Center (17-053; Department of Health and Human Services animal welfare assurance number A-3120-01).

Series [4] concerns Leishmania donovani LV9 axenic amastigotes. Briefly: L. donovani LV9 axenic amastigotes (resazurin). In kind it is cell-based. As to conditions: read-out: Leishmania donovani LV9 Axenic Amastigotes IC50 (µM) ± SD. The method, then: In vitro anti-leishmanial evaluation was perfomed on both axenic and intramacrophage L. donovani amastigotes as previously described. […] Briefly, compounds were distributed in 96-well plates using 2-fold dilutions in 100 µL PYG medium. A. castellanii trophozoites were added to each well at 5 × 10^4 amoeba/mL in 200 µL final volume. L. donovani axenic amastigotes were added to each well at 10^6 parasites/mL in 200 µL final volume. After 72 h incubation at 27 °C, 20 µL of 1 mM resazurin was added to each well and further incubated at 27 °C for 8 h for A. castellanii and for 24 h for L. donovani axenic amastigotes. In living cells, resazurin is reduced in resorufin. This conversion is monitored by measuring the absorbance at specific wavelengths of resorufin (570 nm) and resazurin (600 nm) using a microplate reader (Labsystems Multiskan MS, McLean, VA, USA). In this assay, the activity was expressed in IC50. Miltefosine and pentamidine were used as reference drugs. All experiments were performed in three independent experiments.

For another series, the system named is L. loa microfilariae. Briefly: L. loa microfilariae motility assay. The format is cell-based. As to conditions: 10 μM. The procedure: as §5
L. loa microfilariae assays: L. loa microfilariae were purified from the blood of infected individuals using a step-wise Percoll gradient (46% and 43% Percoll) followed by centrifugation at 400 rcf for 20 min. The microfilariae were recovered in the 43% layer then assayed using the same culture conditions and method as the O. ochengi microfilariae.

For another series, the target named is B. pahangi TrxR. Put plainly: B. pahangi TrxR enzyme assay, DTNB reduction (original data). The format is biochemical, Brugia pahangi. The settings on record: 100 nM enzyme, 3 mM DTNB; after 10 min preincubation; read-out: IC50 B. pahangi TrxR, substrate DTNB (original data). The method, then: Enzymes were prepared in E. coli as described. Assays were performed at 25 °C in 0.1 M potassium phosphate (pH 7.4), 10 mM EDTA using 100 μM NADPH and 3 mM dithiobis(2-nitrobenzoic acid) (DTNB). […] The increase in A412 during the first 3 min was recorded upon DTNB addition. The reaction was done in triplicate.

In series [5] the test system is BL3 cells. In kind it is cell-based, bovine. The procedure: as §3, §4
Another series relates to Human TrxR. As to conditions: 3.7 nM enzyme, 3 mM DTNB; after 10 min preincubation; read-out: IC50 Human TrxR, substrate DTNB; cited from earlier work.
For series [6], the system named is T. b. brucei Squib-427 strain. Briefly: Anti-trypanosomal activity, T. b. brucei trypomastigotes (resazurin). As to conditions: 72 h. In kind it is cell-based, Trypanosoma brucei brucei. The method, then: Anti-trypanosomal activity: T. b. brucei Squib-427 strain (suramin-sensitive) and T. b. gambiense (ITMAP/1893) were cultured at 37 °C and 5% CO2 in HMI-9 medium supplemented with 10% FCS [90]. About 10^4 trypomastigotes/well were added to each well and parasite growth was assessed after 72 h at 37 °C by adding resazurin and reading at ex 550 nm, em 590 nm. Suramin was included as reference drug for T. b. brucei and pentamidine for T. b. gambiense.

Series [7] relates to human fetal lung fibroblast (MRC-5). Briefly: in vitro. The procedure:
as §1, §2

For `CC(=O)OCC1OC([S][Au][PH]2(c3ccccc3)C(c3ccccn3)=CC=C2c2ccccn2)C(OC(C)=O)C(OC(C)=O)C1OC(C)=O` [GoPI-sugar, 1-thio-β-D-glucopyranose 2,3,4,6-tetraacetato-S-Au{1-phenyl-2,5-di(2-pyridyl)phosphole}], the CC50 in series [1] was 8000 nM; with BL3 cells [5], ~500 nM; in [7], 590 nM. Also, the “proliferation of BL3 compared to untreated BL3 cells” value in the series with BL3 cells [2] is “dampened”. In the series with O. ochengi microfilariae, the “% Inhibition of Motility O. ochengi mf Day 5” value came to 100%. The “Dead (%) Day 1” value in [3] (1 μM) worked out at 0%; in series [3] (5 μM), 100%; in series [3] (10 μM), 100%. The “Dead (%) Day 2” value in [3] (1 μM) is listed as 0%. The “Dead (%) Day 3” value in [3] (1 μM) is given as 0%. Further, in series [3] (1 μM), the “Dead (%) Day 4” value came to 0%. Also, the “Dead (%) Day 5” value in series [3] (1 μM) came out at 0%. Also, the concentration for half-maximal inhibition (IC50) in series [4] is 1.45 ± 0.07 µM; at B. pahangi TrxR, 5.5 nM; in the series on Human TrxR, 0.49 ± 0.04 nM; in [6], 1830 nM. For the same compound, the “% Inhibition of Motility L. loa mf w/MK2 Cells Day 5” value in the series on L. loa microfilariae is 38%.

(Values after publication PMC7663263 (Molecules, 2020).)
